Measurements published in patent US9034826B2, “Use of epidermal growth factor for the morphofunctional restoration of peripheral nerves in diabetic neuropathy” (Centro de Ingenieria Genetica y Biotecnologia, priority 2006, dated 2015).

Assays:
diabetic rats [1] = experiment: Sensory conduction velocity in the tail, prevention study (Example 1); assay type: in vivo, Wistar rats; conditions: 75 μg EGF/ml, day 60
Procedure: (§1) Male Wistar, with 200-250 grams of body weight, received a subcutaneous injection of streptozotocin, at 75 mg/kg in sodium citrate buffer. Water was then replaced by a 10% sucrose solution during the next 24 h, to prevent deaths caused by hypoglycemia. Glucose levels in blood were monitored every morning during the next 72 hours after the injection. Only animals with sustained glucose values above 15 mmol/L were used. Rats were housing at 4 per cage and fed in the conventional way. A concurrent group of other 80 rats received citrate buffer without streptozotocin and was handled in a similar fashion to the diabetic group. The average value for glycemia during the 72 hours in this group was 5.87 mmol/L.
(§2) All treatments were conducted during 8 weeks, starting one week after streptozotocin injection. The composition used contained 75 μg of human recombinant EGF/ml. Several types of observations were conducted in the animals under study:
(§3) Fifteen animals were used in each experimental group. In diabetic neuropathy conduction velocity is generally diminished.
(§4) Distal supra-maximal stimulation in the sciatic-tibial route using bipolar electrodes is was used to study motor conduction. Determination of the conduction velocity in the sensory routes was carried out by applying a stimulus at a proximal point in the tail and measure it 3 cm away.

diabetic animals = experiment: Findings in diabetic animals after injection or infiltration of the composition (summary); assay type: in vivo; conditions: after three systemic injections or local infiltrations at the periphery of the nerve trunks
Lipoprotein Lipase (LPL) = experiment: Lipoprotein lipase (LPL) enzymatic activity in sciatic nerve fragments, prevention study (Example 1); assay type: in vivo, Wistar rats
Procedure: as §1, §2
Fragments of the nerve from each animal were incubated together with 3 μg/ml heparin in Krebs-Ringer buffer at 37° C. for 50 minutes. Aliquots from these samples were then incubated in the presence of [^14C] triolein-phosphatidylcholine. ^14C labeled fatty acids were quantified by the classic methods. LPL activity was expressed in nanomoles of released fatty acids (RFA) per minute and gram of tissue.

diabetic rats [2] = experiment: Conduction velocity of motor fibers, reversion study (Example 2); assay type: in vivo, Wistar rats; conditions: established diabetic neuropathy, 100 μg EGF in 1 ml i.p. 3 days a week for one month, day 120 after induction of diabetes
Procedure: as §4
(§5) The aim of this study was to evaluate the neurorestoration effect of the pharmaceutical composition. Male Wistar rats between 200-250 grams of body is weight received a subcutaneous injection of streptozotocin at 75 mg/kg in sodium citrate buffer, and were allowed to evolve until 120 days after disease induction. All rats used in this experiment had shown sustained glucose levels above 15 mmol/L. Animals were handled and fed as previously described. A concurrent control group was set, where animals received saline instead of streptozotocin. […] After this period an electrophysiological characterization of all rats were done and animals were split in two random treatment groups:
(§6) Group II. Animals received the pharmaceutical composition with 100 μg of EGF in 1 ml, 3 days a week, by intraperitoneal route.
To check the effect of the pharmaceutical composition on the restoration of sensory and motor fibers the conduction velocity of an electric impulse was measured at day 120 after induction of diabetes, after treating the animals with the pharmaceutical composition or saline. […]

sciatic nerve = experiment: Histomorphometric study on fragments of the sciatic nerve, prevention study (Example 1); assay type: in vivo, Wistar rats; conditions: day 70 after induction of diabetes; for Number of blood vessels: 10 microscopic fields
Procedure: as §1, §2
Once the treatment was concluded, animals were sacrificed at day 70 after induction of diabetes, 10 days after the last dose was given, and the analysis described above is was completed. Animals were sacrificed by an overdose of anesthesia and perfused with saline buffer pH 7.4. A total of ten animals per experimental group were included for histomorphometric studies, and an equivalent number of rats were used for biochemical determinations. In both systems the sciatic nerves from both limbs were dissected; fragments were kept at −70° C. until processed. The samples taken for histological and/or histomorphometric studies were stained with hematoxilin/eosin and toluidine blue. At least five fragments of the same nerve were quantitatively studied using MADIP program. The fragments were included in blocks of celloidine and gelatin, and those blocks were horizontal and transversally sliced. The following histological indicators were evaluated: • Total number of blood vessels (in epineural/perineural) in 10 microscopic fields using 10× as constant magnification in longitudinal cuts of the nerve. • Percentage of demyelinated fibers. Evaluated by averaging the values per microscopic field (×20, at least five fields). • Percentage of myelin or non-myelin fibers with lesions (dilated or distorted) per microscopic field (×20, at least five fields). • Percentage of endoneurial collagenization (moderated: 25 to 50%; severe: more than 50% of the endoneurial area in transversal slices, and at least three different sections.

diabetic rats [3] = experiment: Motor conduction velocity, sciatic-tibial route, prevention study (Example 1); assay type: in vivo, Wistar rats; conditions: 75 μg EGF/ml, day 60
Procedure: as §1, §2, §3, §4

[4] = tested on: Redox state in fragments of sciatic nerve; experiment: Redox profile in fragments of sciatic nerve, reversion study (Example 2); assay type: in vivo, Wistar rats; conditions: established diabetic neuropathy, 100 μg EGF in 1 ml i.p. 3 days a week for one month
Procedure: as §5, §6
One month after conclusion of the treatment with either EGF containing composition or saline, and […] after disease induction, animals were sacrificed by an overdose of anesthesia and perfused with saline buffer pH 7.4. A total of ten animals per experimental group were included for histomorphometric studies, and an equivalent number of rats were used for biochemical determinations. In both systems the sciatic nerves from both limbs were dissected. The procedures were similar to those described for the neuropathic damage prevention assay. Samples taken for histological and o histomorphometric studies were stained with hematoxilin/eosin and toluidine blue. At least five fragments of the same nerve were quantitatively studied using MADIP program. The fragments were included in OCT blocks, post-fixed with glutaraldehyde, and sliced horizontal and transversally. The histological indicators assessed have been described above as well as the procedures used for the processing and evaluation: • Total number of blood vessels (in epineural/perineural) in 10 microscopic fields using 10× as constant magnification in longitudinal cuts of the nerve. • Percentage of demyelinated fibers. Evaluated by averaging the values per microscopic field (×20, at least five fields). • Percentage of myelin or non-myelin fibers with lesions (dilated or distorted) per microscopic field (×20, at least five fields). • Percentage of endoneurial collagenization (moderated: 25 to 50%; severe: more than 50% of the endoneurial area in transversal slices, and at least three different sections.
Ten animals from each group were used for the biochemical determinations in the is fragments of the sciatic nerve collected. The following biochemical parameters were studied:
Redox Profile: • Total Superoxide Dismutase (tSOD) enzymatic activity total. • Catalase enzymatic activity. • Intra-axonal accumulation of total hydroperoxides (THP). • Intra-axonal accumulation of malonyldialdehyde (MDA).

[5] = 1 ml i.p. once weekly (Treatment group 1)
[6] = 1 ml i.p. three times a week (Treatment group 3)
[7] = Treatment group 1 (once weekly i.p., 8 weeks)
[8] = Treatment group 3 (three times a week i.p., 8 weeks)

## EGF containing pharmaceutical composition: Composition with human recombinant EGF: 75 μg/ml in Example 1, 100 μg in 1 ml in Example 2, given intraperitoneally
Diabetic rats [1]; [5]
  SCV (sensitive conduction velocity): 38 ± 6 m/s
Diabetic rats [1]; [6]
  SCV (sensitive conduction velocity): 44 ± 9 m/s
Diabetic animals
  Axon edema: Reductions in axon edema
  Axonal neurofilaments: Preservation of axonal neurofilaments
  Conduction velocity of motor fibers: Normalization of conduction velocity of motor fibers
  Endoneurial collagenization: Diminution of endoneurial collagenization
  Integrity of the myelin sheath of the sciatic nerve: Improvement in the integrity of the myelin sheath of the sciatic nerve
  Vasa nervorum: Integrity of the vasa nervorum
Lipoprotein Lipase (LPL); [7]
  LPL activity in the sciatic nerve: 3.75 ± 2.2 nmoles RFA/min/g
Lipoprotein Lipase (LPL); [8]
  LPL activity in the sciatic nerve: 5.41 ± 1.83 nmoles RFA/min/g
Diabetic rats [2]
  Velocity (conduction velocity of motor fibers): 54.8 ± 1.66 m/s
Sciatic nerve; [7]
  Number of blood vessels: 111.33 ± 14.5
  % of collagenized area: 42.69 ± 14.71%
  % of demyelinated fibers: 51.2 ± 17.94%
  % of fibers with lesions: 60.12 ± 11%
Sciatic nerve; [8]
  Number of blood vessels: 158.6 ± 26.12
  % of collagenized area: 13.45 ± 11.82%
  % of demyelinated fibers: 35.56 ± 12.18%
  % of fibers with lesions: 41.38 ± 10.26%
Diabetic rats [3]; [5]
  MCV (motor conduction velocity): 45 ± 13 m/s
Diabetic rats [3]; [6]
  MCV (motor conduction velocity): 56 ± 11 m/s
[4]
  Catalase activity: 86.1 ± 6.5 units per milligram of protein per minute
  MDA (malonyldialdehyde): 0.1 ± 0.03 nmol/mg of protein
  THP (total hydroperoxides): 55.8 ± 12.7 nmol/mg of protein
  tSOD (total Superoxide Dismutase activity): 1988.4 ± 101.6 units per milligram of protein per minute
